Data: patent US12648917B2 (University of Florida Research Foundation, Incorporated, priority 2017, dated 2026)
“Also recorded” adds a separate entry of the source.

Tests used:
GA aggregates = GA aggregates in retrosplenial cortex of C9-BAC mice; assay type: in vivo, mouse; details: for reduction in the number of GA aggregates compared to C9 controls: 5 mg/ml in drinking water
Experimental: (§1) In Group A animals, treatment began at 2 months of age, before the onset of overt behavioral or pathological phenotypes. In Group B, smaller cohorts of animals (n=8/group) were treated beginning at 6 months, an age at which behavioral phenotypes are evident. DigiGait analyses of Group A mice at 5 months identified eight DigiGait parameters that differed between untreated C9 and NT cohorts. […]. […] […].
Cancer Prev Res (Phila) 3, 1066-1076, doi: 10.1158/1940-6207. CAPR-10-0055 (2010)). In Group A animals, three months of treatment began at 2 months of age, before the onset of overt behavioral or pathological phenotypes. In Group B, smaller cohorts of animals were treated for four months beginning at 6 months, an age at which behavioral phenotypes are evident^12.

PKR = biological target: T1, PKR (Homo sapiens, UniProt P19525); test: p-PKR (T446 and T451) levels by protein blot in HEK293T cells transfected with repeat expansion constructs; assay type: cell-based; details: for G4C2 repeat-expansion induced p-PKR (T446 and T451) levels, dose dependence: cells transfected with a G4C2 repeat expansion construct (FIG. 4)
T1 construct: endogenous in cells; host or cells: HEK293T
Experimental: (§2) HEK293T cells were cultured in DMEM medium supplemented with 10% fetal bovine serum and incubated at 37° C. in a humid atmosphere containing 5% CO2. DNA transfections were performed using Lipofectamine 2000 Reagent (Invitrogen) according to the manufacturer's instructions.
(§3) Transfected cells in each well of a six-well tissue-culture plate were rinsed with PBS and lysed in 300 μL RIPA buffer with protease inhibitor cocktail for 45 min on ice. DNA was sheared by passage through a 21-gauge needle. The cell lysates were centrifuged at 16,000×g for 15 min at 4° C., and the supernatant was collected. The protein concentration of the cell lysate was determined using the protein assay dye reagent (Bio-Rad). Twenty micrograms of protein were separated in a 4-12% NuPAGE Bis-Tris gel (Invitrogen) and transferred to a nitrocellulose membrane (Amersham). The membrane was blocked in 5% dry milk in PBS containing 0.05% Tween-20 (PBS-T) and probed with the anti-Flag (1:2000), anti-Myc (1:1000), anti-HA (1:1000), or rabbit polyclonal antibodies (1:1000) in blocking solution. After the membrane was incubated with anti-rabbit or anti-mouse HRP-conjugated secondary antibody (Amersham), bands were visualized by the ECL plus Western Blotting Detection System (Amersham).
[…]. Transient transfections of expansion constructs treated with or without metformin were performed. […].

RAN protein translation = test: RAN protein levels by protein blot in HEK293T cells transfected with repeat expansion constructs; assay type: cell-based; details: for RAN polyGP protein levels, dose dependence: HEK293T cells transiently transfected with G4C2 expansion constructs (FIG. 4)
Source text: . […] Protein blots were run on protein lysates from HEK293T cells transfected with various repeat expansion constructs shown in FIG. 1A. In FIG. 1B, the lanes labeled KMQ, show: RAN poly-Ser-Flag, RAN poly-Ala-HA, ATG initiated polyGln-Myc. In FIG. 1B, the lanes labeled KMQ has a methionine encoding ATG immediately 5′ to the CAG repeat expansion and located within the polyGln reading frame. The lanes labeled KKQ indicate the KKQ vector contains a CAG expansion without an AUG initiation codon, and indicates: RAN polySer-Flag, RAN polyAla-HA, RAN polyGln-Myc. These constructs contain epitope tags that are incorporated into the C-terminal regions of the ATG-initiated poly-Gln and non-ATG initiated RAN proteins (poly-Gln, poly-Leu-Pro-Ala-Cys and poly-Gly-Pro) which are expressed across these repeat expansions. The lane labeled CCTG expresses the following RAN proteins: RAN polyLPAC-Flag, RAN polyLPAC-HA, RAN polyLPAC-Myc. The lane labeled G4C2 is designed to detect the following RAN proteins: RAN polyGP-Flag, RAN polyGR-HA, RAN polyGA-Myc. […].
as §2, §3
. Transient transfections of expansion constructs treated with or without metformin were performed. […]. […] Protein blots were run on protein lysates from HEK293T cells transfected with various repeat expansion constructs shown in FIG. 5A. In FIG. 5B, the lanes labeled KMQ, show: RAN poly-Ser-Flag, RAN poly-Ala-HA, ATG initiated polyGln-Myc. In FIG. 5B the lanes labeled KMQ has a methionine encoding ATG immediately 5′ to the CAG repeat expansion and located within the polyGln reading frame. The lanes labeled KKQ indicate the KKQ vector contains a CAG expansion without an AUG initiation codon, and indicates: RAN polySer-Flag, RAN polyAla-HA, RAN polyGln-Myc. These constructs contain epitope tags that are incorporated into the C-terminal regions of the ATG-initiated poly-Gln and non-ATG initiated RAN proteins (poly-Gln, poly-Leu-Pro-Ala-Cys and poly-Gly-Pro) which are expressed across these repeat expansions. The lane labeled CCTG expresses the following RAN proteins: RAN polyLPAC-Flag, RAN polyLPAC-HA, RAN polyLPAC-Myc. The lane labeled G4C2 is designed to detect the following RAN proteins: RAN polyGP-Flag, RAN polyGR-HA, RAN polyGA-Myc. […].

[1] = test system: glycine-proline (GP) RAN protein; test: GP RAN protein levels in leukocyte lysates from peripheral blood of a C9ORF72 expansion-positive subject; assay type: in vivo; details: single human subject with C9ORF72 repeat expansion, 500 or 1000 mg/day Metformin Hydrochloride Extended Release Tablets, 10 to 30 days after treatment
Source text: […]. […] […]. […] […]

C9-BAC mice = test: Open field analysis (center time) in C9-BAC mice; assay type: in vivo, mouse; details: Group A metformin-treated C9 mice compared to untreated C9 mice
Experimental: Open field analysis. Open field analysis was performed by testing mouse behavior during a 30 min session in a completely dark open chamber (17″×17″) (Med Associates). Approximately two hours before the start of analysis, mice were placed in the testing room to allow for acclimation to the room. Mice were then placed in the center of the darkened activity-monitoring chamber. The trace path and center time was recorded and analyzed with Activity Monitor (MED associates, Inc.) software.
as §1
DigiGait analyses of Group A mice at 5 months identified eight parameters that differed between untreated C9 and NT cohorts. […]. […]. […]

[2] = test system: glial fibrillary acidic protein (GFAP); test: IHC staining for GFAP (neuroinflammation, reactive gliosis) in C9-BAC mice; assay type: in vivo, mouse
[3] = metformin 5 mg/ml in the drinking water; previously shown, comparable to human doses of 20 mg/kg/day; cited from earlier work

T1 sequence (P19525 whole entry): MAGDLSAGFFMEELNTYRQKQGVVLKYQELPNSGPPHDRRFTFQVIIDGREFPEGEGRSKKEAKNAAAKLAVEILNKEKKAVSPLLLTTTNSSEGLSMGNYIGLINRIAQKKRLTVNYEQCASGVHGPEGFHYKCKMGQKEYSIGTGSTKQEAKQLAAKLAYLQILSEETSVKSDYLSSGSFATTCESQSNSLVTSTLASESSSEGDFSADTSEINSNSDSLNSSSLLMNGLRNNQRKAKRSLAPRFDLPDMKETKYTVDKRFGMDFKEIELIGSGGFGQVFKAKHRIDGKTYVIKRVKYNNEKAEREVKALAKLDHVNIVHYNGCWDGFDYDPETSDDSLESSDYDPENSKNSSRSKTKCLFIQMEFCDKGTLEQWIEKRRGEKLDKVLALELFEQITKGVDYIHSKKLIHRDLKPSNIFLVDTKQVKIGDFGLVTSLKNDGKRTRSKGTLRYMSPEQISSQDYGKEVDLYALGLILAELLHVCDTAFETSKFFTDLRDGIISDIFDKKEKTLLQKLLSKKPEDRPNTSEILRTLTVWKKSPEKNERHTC

Row | G4C2 repeat-expansion induced p-PKR (T446 and T451) levels, dose dependence (PKR) | Structure (SMILES) | reduction in the number of GA aggregates compared to C9 controls (GA aggregates; Group A (treated from 2 months of age, 3 months), P=0.01) [%] | reduction in the number of GA aggregates compared to C9 controls (GA aggregates; Group B (treated from 6 months of age), P=0.047) [%] | GA aggregates compared to untreated C9 controls, in words (GA aggregates; metformin in drinking water, Group A and Group B) | p-PKR (T446 and T451) levels / PKR phosphorylation (PKR; cells transfected with repeat expansion constructs, with or without metformin (FIG. 3B, FIG. 6A)) | RAN protein levels of poly-Ala (RAN protein translation; HEK293T cells transfected with CAG repeat expansion constructs, treated with metformin, protein blot) | RAN protein levels of poly-LPAC (all three reading frames) (RAN protein translation; HEK293T cells transfected with CCTG repeat expansion construct, treated with metformin, protein blot) | RAN protein levels of poly-GP (RAN protein translation; HEK293T cells transfected with G4C2 (GGGGCC) repeat expansion construct, treated with metformin, protein blot) | RAN protein levels / expression (RAN protein translation; HEK293T cells transiently transfected with CAG, CCTG, CAGG and G4C2 expansion constructs (FIG. 3A)) | RAN polyGP protein levels, dose dependence (RAN protein translation) | glycine-proline (GP) RAN protein levels compared to pretreatment levels [1] | open field center time (anxiety-like behavior) (C9-BAC mice) | GFAP staining / reactive gliosis compared to untreated C9 animals, in words ([2]; C9 metformin treated vs untreated C9 animals (Group A)) | reduction of GFAP staining compared to untreated C9 mice ([2]; Group A) [%] | reduction of GFAP staining compared to untreated C9 mice ([2]; Group B) [%] | plasma levels [3] [µM]
1 | reduce levels of p-PKR | [H]/N=C(/N)N/C(=N/[H])NCCc1ccccc1 [phenformin] |  |  |  |  |  |  |  |  | reduce GP RAN protein levels in a dose-dependent manner |  |  |  |  |  | 
2 | reduce levels of p-PKR | CCCCNC(=N)NC(=N)N [buformin] |  |  |  |  |  |  |  |  | reduce GP RAN protein levels in a dose-dependent manner |  |  |  |  |  | 

Row | Structure (SMILES) | G4C2 repeat-expansion induced p-PKR (T446 and T451) levels, dose dependence (PKR) | reduction in the number of GA aggregates compared to C9 controls (GA aggregates; Group A (treated from 2 months of age, 3 months), P=0.01) [%] | reduction in the number of GA aggregates compared to C9 controls (GA aggregates; Group B (treated from 6 months of age), P=0.047) [%] | GA aggregates compared to untreated C9 controls, in words (GA aggregates; metformin in drinking water, Group A and Group B) | p-PKR (T446 and T451) levels / PKR phosphorylation (PKR; cells transfected with repeat expansion constructs, with or without metformin (FIG. 3B, FIG. 6A)) | RAN protein levels of poly-Ala (RAN protein translation; HEK293T cells transfected with CAG repeat expansion constructs, treated with metformin, protein blot) | RAN protein levels of poly-LPAC (all three reading frames) (RAN protein translation; HEK293T cells transfected with CCTG repeat expansion construct, treated with metformin, protein blot) | RAN protein levels of poly-GP (RAN protein translation; HEK293T cells transfected with G4C2 (GGGGCC) repeat expansion construct, treated with metformin, protein blot) | RAN protein levels / expression (RAN protein translation; HEK293T cells transiently transfected with CAG, CCTG, CAGG and G4C2 expansion constructs (FIG. 3A)) | RAN polyGP protein levels, dose dependence (RAN protein translation) | glycine-proline (GP) RAN protein levels compared to pretreatment levels [1] | open field center time (anxiety-like behavior) (C9-BAC mice) | GFAP staining / reactive gliosis compared to untreated C9 animals, in words ([2]; C9 metformin treated vs untreated C9 animals (Group A)) | reduction of GFAP staining compared to untreated C9 mice ([2]; Group A) [%] | reduction of GFAP staining compared to untreated C9 mice ([2]; Group B) [%] | plasma levels [3] [µM]
3 | CN(C)C(=N)NC(=N)N [metformin] | reduce levels of p-PKR | 38 | 37 | decreased numbers of GA aggregates; also recorded: reduction in GA aggregates | decreases PKR phosphorylation; also recorded: reduces levels of p-PKR | reduced; also recorded: decreases | reduced; also recorded: decreases | reduced; also recorded: decreases | decreases RAN protein levels; also recorded: reduces RAN protein expression | reduce GP RAN protein levels in a dose-dependent manner | Dose dependent reduction; also recorded: Dose-dependent reduction | increased center time; also recorded: normalization or increased center time; also recorded: normalized | significantly reduced; also recorded: decreased levels of reactive gliosis | 79 | 74 | ~10
